Assay results taken from patent publication US20260092071A1, “COMPOUNDS AND COMPOSITIONS AS SMARCA2/4 DEGRADERS AND USES THEREOF” (REGENTS OF THE UNIVERSITY OF MICHIGAN, priority 2022, published 2026).
Like-named read-outs stand apart in the source and are kept apart here.

Experiments:
[1] = target: SMARCA4 (Homo sapiens, UniProt P51532); assay: HiBiT assay for protein degradation, Hela SMARCA4-HiBiT cells (A series); type: cell-based; parameters: fuse HiBiT to the carboxy terminus of SMARCA2 (Promega CS302365) or SMARCA4 (Promega CS3023225); host or cells: HeLa (CRISPR/Cas9 HiBiT knock-in); settings: for DC50: read-out: SMARC A4 Hela HiBit DC50
Outline: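 SMARCA4 degradation was measured in HeLa cells in which HiBiT had been knocked into the SMARCA4 carboxy terminus via CRISPR/Cas9 (Promega CS3023225). Cells were maintained in DMEM with FBS and penicillin-streptomycin. At the end of treatment, SMARCA4 levels were read by lytic HiBiT luminescence (Nano-Glo®, Promega N3050), and data were analyzed with GraphPad Prism.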

[2] = target: SMARCA2 (Homo sapiens, UniProt P51531); assay: HiBiT assay for protein degradation, Hela SMARCA2-HiBiT cells (A series); type: cell-based; parameters: Hela cells were genetically modified via CRISPR/Cas9 to fuse HiBiT to the carboxy terminus of SMARCA2; host or cells: HeLa (CRISPR/Cas9 HiBiT knock-in); settings: for DC50: read-out: SMARC A2 Hela HiBit DC50; for Dmax: read-out: SMARC A2 Hela HiBit Dmax (%);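 on SMARC A2 Hela HiBit Dmax (%): 24 h compound treatment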
Outline: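 SMARCA2 degradation was measured in HeLa cells whose endogenous SMARCA2 carries a carboxy-terminal HiBiT tag introduced by CRISPR/Cas9 (Promega CS302365). Cells were maintained in DMEM with FBS and penicillin-streptomycin. SMARCA2 levels were read at the end of the experiment by Nano-Glo® HiBiT lytic luminescence (Promega N3050) and analyzed in GraphPad Prism.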

[3] = Hela SMARCA4-HiBiT cells, 24 hours treatment
[4] = Hela SMARCA4-HiBiT cells, 24 hours treatment, read-out: SMARC A4 Hela HiBit Dmax
[5] = Hela SMARCA2-HiBiT cells, 24 hours treatment
[6] = Hela SMARCA4-HiBiT cells, 24 hours treatment, read-out: SMARC A4 Hela HiBit Dmax(%)

SMARCA4, sequence (P51532 whole entry): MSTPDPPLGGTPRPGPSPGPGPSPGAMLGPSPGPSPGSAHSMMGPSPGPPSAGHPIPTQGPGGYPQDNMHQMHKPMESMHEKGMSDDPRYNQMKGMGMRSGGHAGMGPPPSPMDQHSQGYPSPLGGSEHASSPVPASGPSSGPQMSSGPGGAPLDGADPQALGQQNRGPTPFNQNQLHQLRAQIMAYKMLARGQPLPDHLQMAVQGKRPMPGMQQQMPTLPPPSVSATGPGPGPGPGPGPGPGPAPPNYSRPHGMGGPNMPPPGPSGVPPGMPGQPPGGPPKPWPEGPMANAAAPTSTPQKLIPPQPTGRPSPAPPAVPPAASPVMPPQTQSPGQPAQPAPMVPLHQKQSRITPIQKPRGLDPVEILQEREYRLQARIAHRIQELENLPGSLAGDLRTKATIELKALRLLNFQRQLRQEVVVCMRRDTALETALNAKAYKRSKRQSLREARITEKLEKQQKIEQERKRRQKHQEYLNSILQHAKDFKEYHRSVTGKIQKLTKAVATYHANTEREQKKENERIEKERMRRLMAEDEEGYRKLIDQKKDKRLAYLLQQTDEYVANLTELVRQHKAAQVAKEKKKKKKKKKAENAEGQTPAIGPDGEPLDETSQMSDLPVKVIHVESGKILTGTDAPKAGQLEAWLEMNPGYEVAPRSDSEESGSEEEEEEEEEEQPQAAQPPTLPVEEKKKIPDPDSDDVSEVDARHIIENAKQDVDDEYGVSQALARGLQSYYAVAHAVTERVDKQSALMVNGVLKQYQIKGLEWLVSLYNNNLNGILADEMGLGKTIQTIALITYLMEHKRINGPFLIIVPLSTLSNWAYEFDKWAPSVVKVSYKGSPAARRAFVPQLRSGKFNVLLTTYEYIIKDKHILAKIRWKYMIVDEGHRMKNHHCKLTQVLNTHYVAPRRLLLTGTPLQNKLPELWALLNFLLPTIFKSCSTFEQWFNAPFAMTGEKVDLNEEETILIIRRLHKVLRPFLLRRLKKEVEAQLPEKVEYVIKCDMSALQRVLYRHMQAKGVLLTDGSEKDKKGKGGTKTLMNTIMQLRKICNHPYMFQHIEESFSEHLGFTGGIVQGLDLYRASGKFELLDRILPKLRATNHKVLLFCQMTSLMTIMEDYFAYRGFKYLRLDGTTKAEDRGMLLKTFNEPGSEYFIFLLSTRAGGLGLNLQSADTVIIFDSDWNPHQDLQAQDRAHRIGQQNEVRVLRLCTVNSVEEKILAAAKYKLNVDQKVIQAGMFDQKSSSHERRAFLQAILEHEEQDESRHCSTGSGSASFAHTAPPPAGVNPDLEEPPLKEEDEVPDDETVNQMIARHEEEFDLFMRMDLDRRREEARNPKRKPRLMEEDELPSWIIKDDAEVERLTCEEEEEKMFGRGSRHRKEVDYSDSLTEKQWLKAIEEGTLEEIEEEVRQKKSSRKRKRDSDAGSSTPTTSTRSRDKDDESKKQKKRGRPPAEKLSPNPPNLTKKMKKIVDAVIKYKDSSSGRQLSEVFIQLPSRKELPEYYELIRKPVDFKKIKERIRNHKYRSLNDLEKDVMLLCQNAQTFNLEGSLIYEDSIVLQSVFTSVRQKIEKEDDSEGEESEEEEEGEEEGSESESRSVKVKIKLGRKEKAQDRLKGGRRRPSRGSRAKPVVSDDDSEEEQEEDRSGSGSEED
SMARCA2, sequence (P51531 whole entry): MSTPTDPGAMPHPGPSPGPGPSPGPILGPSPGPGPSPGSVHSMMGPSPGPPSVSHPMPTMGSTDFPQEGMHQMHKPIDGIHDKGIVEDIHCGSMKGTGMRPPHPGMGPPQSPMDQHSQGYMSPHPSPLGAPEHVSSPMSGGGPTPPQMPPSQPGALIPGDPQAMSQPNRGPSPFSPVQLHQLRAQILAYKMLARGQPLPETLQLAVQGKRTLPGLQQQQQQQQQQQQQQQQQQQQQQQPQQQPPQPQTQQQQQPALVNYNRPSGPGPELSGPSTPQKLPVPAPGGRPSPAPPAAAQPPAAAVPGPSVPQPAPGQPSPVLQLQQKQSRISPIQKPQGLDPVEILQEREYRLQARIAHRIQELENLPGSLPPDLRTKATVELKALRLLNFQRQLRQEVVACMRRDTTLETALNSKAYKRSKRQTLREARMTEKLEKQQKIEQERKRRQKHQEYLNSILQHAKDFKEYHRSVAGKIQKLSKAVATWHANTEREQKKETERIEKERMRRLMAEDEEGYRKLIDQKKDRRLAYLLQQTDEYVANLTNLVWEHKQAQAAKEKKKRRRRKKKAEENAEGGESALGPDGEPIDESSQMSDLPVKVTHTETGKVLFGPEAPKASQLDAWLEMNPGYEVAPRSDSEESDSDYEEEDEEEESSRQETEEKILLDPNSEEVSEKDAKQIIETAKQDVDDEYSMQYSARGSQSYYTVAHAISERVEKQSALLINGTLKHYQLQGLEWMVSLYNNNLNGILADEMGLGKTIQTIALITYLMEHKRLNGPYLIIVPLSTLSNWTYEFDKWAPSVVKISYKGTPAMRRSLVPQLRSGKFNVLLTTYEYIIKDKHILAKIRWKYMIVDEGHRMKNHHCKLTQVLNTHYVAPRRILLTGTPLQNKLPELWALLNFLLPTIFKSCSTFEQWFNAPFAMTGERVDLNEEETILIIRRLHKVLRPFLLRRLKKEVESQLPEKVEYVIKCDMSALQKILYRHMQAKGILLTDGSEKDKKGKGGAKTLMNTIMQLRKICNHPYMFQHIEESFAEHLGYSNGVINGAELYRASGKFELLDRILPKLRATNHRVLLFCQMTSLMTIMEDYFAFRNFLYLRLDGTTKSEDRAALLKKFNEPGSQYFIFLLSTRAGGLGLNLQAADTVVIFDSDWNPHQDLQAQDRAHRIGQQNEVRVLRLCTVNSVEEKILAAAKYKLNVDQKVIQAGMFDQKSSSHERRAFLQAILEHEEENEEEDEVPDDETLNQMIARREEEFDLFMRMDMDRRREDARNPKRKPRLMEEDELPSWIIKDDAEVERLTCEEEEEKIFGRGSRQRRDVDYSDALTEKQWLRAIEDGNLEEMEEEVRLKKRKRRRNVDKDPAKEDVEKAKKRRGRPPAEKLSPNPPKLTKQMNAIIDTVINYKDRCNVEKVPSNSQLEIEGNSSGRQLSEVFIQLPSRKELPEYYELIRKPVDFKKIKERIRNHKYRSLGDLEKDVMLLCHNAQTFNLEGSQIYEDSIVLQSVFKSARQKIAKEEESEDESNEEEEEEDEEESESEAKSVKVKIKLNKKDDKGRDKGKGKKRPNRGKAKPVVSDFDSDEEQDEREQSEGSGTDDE

| DC50 [1, 3] | Dmax [1, 4] | DC50 [2, 5] | Dmax [2, 5] | SMARC A4 Hela HiBit Dmax(%) [1, 3] | DC50 [1] | SMARC A2 Hela HiBit Dmax (%) [2, 5] | DC50 [2] | Dmax [1, 6] | Structure (SMILES) | Dmax ([1]; HeLa, read-out: SMARC A4 Hela HiBit Dmax(%)) | Dmax ([2]; HeLa) |
| --- | --- | --- | --- | --- | --- | --- | --- | --- | --- | --- | --- |
| 100 to 1000 nM | 50 to 69% | < 10 nM | > 90% |  |  |  |  |  | Cc1ncsc1-c1ccc([C@H](C)NC(=O)[C@@H]2C[C@@H](O)CN2C(=O)[C@H](C2CCCCC2)n2cc([C@H]3CC[C@H](CN4CCC(c5ccc6c(c5)-n5c(nc(=O)c7c(Cl)cccc75)C65CCCCC5)CC4)CC3)nn2)cc1 [Compound A118, (2S,4R)-1-((S)-2-(4-((1r,4S)-4-((4-(4′-chloro-5′-oxo-5′H-spiro[cyclohexane-1,7′-indolo[1,2-a]quinazolin]-10′-yl)piperidin-1-yl)methyl)cyclohexyl)-1H-1,2,3-triazol-1-yl)-2-cyclohexylacetyl)-4-hydroxy-N—((S)-1-(4-(4-methylthiazol-5-yl)phenyl)ethyl)pyrrolidine-2-carboxamide] |  |  |
|  |  |  |  | D (D (<50% degradation)) | > 1000 nM | B (B (70-90% degradation)) | < 100 nM |  | Cc1ncsc1-c1ccc([C@H](CN2CCOCC2)NC(=O)[C@@H]2C[C@@H](O)CN2C(=O)[C@@H](NC(=O)C23CCC(CN4CCC(c5ccc6c(c5)-n5c(nc(=O)c7c(Br)cccc75)C65CCCCC5)CC4)(CC2)CC3)C(C)(C)C)cc1 [Compound A30, (2S,4R)-1-((S)-2-(4-((4-(4′-bromo-5′-oxo-5′H-spiro[cyclohexane-1,7′-indolo[1,2-a]quinazolin]-10′-yl)piperidin-1-yl)methyl)bicyclo[2.2.2]octane-1-carboxamido)-3,3-dimethylbutanoyl)-4-hydroxy-N—((R)-1-(4-(4-methylthiazol-5-yl)phenyl)-2-morpholinoethyl)pyrrolidine-2-carboxamide] |  |  |
|  |  |  |  | B (B (70-90% degradation)) | < 100 nM | A (A (>90% degradation)) | < 100 nM |  | Cc1ncsc1-c1ccc([C@H](C)NC(=O)[C@@H]2C[C@@H](O)CN2C(=O)[C@@H](n2cc(CCCN3CCC(c4ccc5c(c4)-n4c(nc(=O)c6c(Br)cccc64)C54CCCCC4)CC3)nn2)C(C)(C)C)cc1 [Compound A44, (2S,4R)-1-((S)-2-(4-(3-(4-(4′-bromo-5′-oxo-5′H-spiro[cyclohexane-1,7′-indolo[1,2-a]quinazolin]-10′-yl)piperidin-1-yl)propyl)-1H-1,2,3-triazol-1-yl)-3,3-dimethylbutanoyl)-4-hydroxy-N—((S)-1-(4-(4-methylthiazol-5-yl)phenyl)ethyl)pyrrolidine-2-carboxamide] |  |  |
| > 1000 nM | < 50% | 100 to 1000 nM | 70 to 90% |  |  |  |  |  | Cc1ncsc1-c1ccc([C@H](C)NC(=O)[C@@H]2C[C@@H](O)CN2C(=O)[C@H](C2CCN(C(=O)CCCCN3CCC(c4ccc5c(c4)-n4c(nc(=O)c6c(Cl)cccc64)C54CCCCC4)CC3)CC2)n2cc(C3CC3)nn2)cc1 [Compound A107, (2S,4R)-1-((S)-2-(1-(5-(4-(4′-chloro-5′-oxo-5′H-spiro[cyclohexane-1,7′-indolo[1,2-a]quinazolin]-10′-yl)piperidin-1-yl)pentanoyl)piperidin-4-yl)-2-(4-cyclopropyl-1H-1,2,3-triazol-1-yl)acetyl)-4-hydroxy-N—((S)-1-(4-(4-methylthiazol-5-yl)phenyl)ethyl)pyrrolidine-2-carboxamide] |  |  |
| > 1000 nM | < 50% | 100 to 1000 nM | 50 to 69% |  |  |  |  |  | Cc1ncsc1-c1ccc([C@H](C)NC(=O)[C@@H]2C[C@@H](O)CN2C(=O)[C@H](C2CCN(C(=O)CN3CCC(c4ccc5c(c4)-n4c(nc(=O)c6c(Cl)cccc64)C54CCCCC4)CC3)CC2)n2cc(C3CC3)nn2)cc1 [Compound A105, (2S,4R)-1-((S)-2-(1-(2-(4-(4′-chloro-5′-oxo-5′H-spiro[cyclohexane-1,7′-indolo[1,2-a]quinazolin]-10′-yl)piperidin-1-yl)acetyl)piperidin-4-yl)-2-(4-cyclopropyl-1H-1,2,3-triazol-1-yl)acetyl)-4-hydroxy-N—((S)-1-(4-(4-methylthiazol-5-yl)phenyl)ethyl)pyrrolidine-2-carboxamide] |  |  |
| 10 to 100 nM | 70 to 90% | < 10 nM | > 90% |  |  |  |  |  | Cc1ncsc1-c1ccc([C@H](CN2CCOCC2)NC(=O)[C@@H]2C[C@@H](O)CN2C(=O)[C@H](C2CCOCC2)n2cc([C@H]3CC[C@H](CN4CCC(c5ccc6c(c5)-n5c(nc(=O)c7c(Br)cccc75)C65CCCCC5)CC4)CC3)nn2)cc1 [Compound A101, (2S,4R)-1-((S)-2-(4-((1r,4S)-4-((4-(4′-bromo-5′-oxo-5′H-spiro[cyclohexane-1,7′-indolo[1,2-a]quinazolin]-10′-yl)piperidin-1-yl)methyl)cyclohexyl)-1H-1,2,3-triazol-1-yl)-2-(tetrahydro-2H-pyran-4-yl)acetyl)-4-hydroxy-N-((R)-1-(4-(4-methylthiazol-5-yl)phenyl)-2-morpholinoethyl)pyrrolidine-2-carboxamide] |  |  |
| < 100 nM |  | < 100 nM | > 90% |  |  |  |  | 70 to 90% | Cc1ncsc1-c1ccc([C@H](C)NC(=O)[C@@H]2C[C@@H](O)CN2C(=O)[C@@H](n2cc(CN3CCC(c4ccc5c(c4)-n4c(nc(=O)c6c(Br)cccc64)C54CCCCC4)CC3)nn2)C(C)(C)C)cc1 [Compound A43, (2S,4R)-1-((S)-2-(4-((4-(4′-bromo-5′-oxo-5′H-spiro[cyclohexane-1,7′-indolo[1,2-a]quinazolin]-10′-yl)piperidin-1-yl)methyl)-1H-1,2,3-triazol-1-yl)-3,3-dimethylbutanoyl)-4-hydroxy-N—((S)-1-(4-(4-methylthiazol-5-yl)phenyl)ethyl)pyrrolidine-2-carboxamide] |  |  |
|  |  |  |  | A (A (>90% degradation)) | < 100 nM | A (A (>90% degradation)) | < 100 nM |  | Cc1ncsc1-c1ccc([C@H](C)NC(=O)[C@@H]2C[C@@H](O)CN2C(=O)[C@@H](n2cc([C@H]3C[C@H](CN4CCC(c5ccc6c(c5)C5(CCCCC5)c5nc(=O)c7c(Br)cccc7n5-6)CC4)C3)nn2)C(C)(C)C)cc1 [Compound A61, (2S,4R)-1-((S)-2-(4-((1r,3S)-3-((4-(4′-bromo-5′-oxo-5′H-spiro[cyclohexane-1,7′-indolo[1,2-a]quinazolin]-9′-yl)piperidin-1-yl)methyl)cyclobutyl)-1H-1,2,3-triazol-1-yl)-3,3-dimethylbutanoyl)-4-hydroxy-N—((S)-1-(4-(4-methylthiazol-5-yl)phenyl)ethyl)pyrrolidine-2-carboxamide] |  |  |
| < 100 nM |  | < 100 nM | > 90% |  |  |  |  | > 90% | Cc1ncsc1-c1ccc([C@H](C)NC(=O)[C@@H]2C[C@@H](O)CN2C(=O)[C@@H](n2cc(CCCN3CCC(c4ccc5c(c4)C4(CCCCC4)c4nc(=O)c6c(Br)cccc6n4-5)CC3)nn2)C(C)(C)C)cc1 [Compound A55, (2S,4R)-1-((S)-2-(4-(3-(4-(4′-bromo-5′-oxo-5′H-spiro[cyclohexane-1,7′-indolo[1,2-a]quinazolin]-9′-yl)piperidin-1-yl)propyl)-1H-1,2,3-triazol-1-yl)-3,3-dimethylbutanoyl)-4-hydroxy-N—((S)-1-(4-(4-methylthiazol-5-yl)phenyl)ethyl)pyrrolidine-2-carboxamide] |  |  |

| Structure (SMILES) | DC50 [1, 3] | Dmax [1, 4] | DC50 [2, 5] | Dmax [2, 5] | SMARC A4 Hela HiBit Dmax(%) [1, 3] | DC50 [1] | SMARC A2 Hela HiBit Dmax (%) [2, 5] | DC50 [2] | Dmax [1, 6] | Dmax ([1]; HeLa, read-out: SMARC A4 Hela HiBit Dmax(%)) | Dmax ([2]; HeLa) |
| --- | --- | --- | --- | --- | --- | --- | --- | --- | --- | --- | --- |
| Cc1ncsc1-c1ccc([C@H](C)NC(=O)[C@@H]2C[C@@H](O)CN2C(=O)[C@@H](NC(=O)CCCCN2CCC(c3ccc4c(c3)C3(CCCCC3)c3nc(=O)c5c(Cl)cccc5n3-4)CC2)C(C)(C)C)cc1 [Compound A8, (2S,4R)-1-((S)-2-(5-(4-(4′-chloro-5′-oxo-5′H-spiro[cyclohexane-1,7′-indolo[1,2-a]quinazolin]-9′-yl)piperidin-1-yl)pentanamido)-3,3-dimethylbutanoyl)-4-hydroxy-N—((S)-1-(4-(4-methylthiazol-5-yl)phenyl)ethyl) pyrrolidine-2-carboxamide] | > 1000 nM |  | 100 to 500 nM |  |  |  |  |  |  | < 50% | 70 to 90% |
| Cc1ncsc1-c1ccc([C@H](C)NC(=O)[C@@H]2C[C@@H](O)CN2C(=O)[C@@H](NC(=O)C2CC(CN3CCC(c4ccc5c(c4)C4(CCCCC4)c4nc(=O)c6c(Br)cccc6n4-5)CC3)C2)C(C)(C)C)cc1 (stereo partly drawn) [Compound A20, (2S,4R)-1-((S)-2-(3-((4-(4′-bromo-5′-oxo-5′H-spiro[cyclohexane-1,7′-indolo[1,2-a]quinazolin]-9′-yl)piperidin-1-yl)methyl)cyclobutane-1-carboxamido)-3,3-dimethylbutanoyl)-4-hydroxy-N—((S)-1-(4-(4-methylthiazol-5-yl)phenyl)ethyl)pyrrolidine-2-carboxamide] |  |  |  |  |  | > 1000 nM |  | < 100 nM | < 50% |  | > 90% |
